Experimental findings from patent US20220098525A1, “LAUNDRY DETERGENT” (Conopco, Inc., d/b/a UNILEVER, priority 2019, published 2022) are described below.

Where two headings read alike, the source gives them in different places.

What all share (assay type): physicochemical
The nature of data set [1]: hydrolysis in the region of pH 4 to 10.
Data set [2] in a line: dissolution of dye in water for pKa measurement. Particulars: approximately 2×10^−5 mol L^−1 in water, conditions analogous to the reference dye. Here is the method:
(§1) pKa values (acid dissociation constant) were measured for the reference dye by dissolving approximately 2×10^−5 mol L^−1 of the dye in water then varying the pH from 9.6 to 1.9 and observing the changes in the UV-VIS spectrum at 570 nm. The pKa values are higher than expected for a free —COOH group which would be 3 to 4 and is attributed to the effect of the alkyl chains.

Data set [3] in a line: pKa measured by pH variation and UV-VIS spectrum at 570 nm. The following applies: water, pH 4, approximately 2×10^−5 mol L^−1 dye in water, pH varied 9.6 to 1.9, UV-VIS at 570 nm; dual pKa fit for the 2 -COOH groups. Here is the method: as §1

Turning to `C=COCCOCCN(CCOCCO)c1ccc(/N=N/c2sc(C#N)c(C)c2C#N)c(C)c1` [inventive], the hydrolysis entry is reported as “not observed” in data set [1] and “resistant to hydrolysis” in data set [1] (listed as inventive compound). Further, in data set [2], the dissolution in water entry is listed as “did not dissolve”.
`CCCCC/C=C/CC(CC(=O)OCCOCCN(CCOCCOC(=O)CC(C/C=C/CCCCC)C(=O)O)c1ccc(/N=N/c2sc(C#N)c(C)c2C#N)c(C)c1)C(=O)O` (centres unmarked) [reference, reference compound] returned a pKa in data set [3] of 7.5. Also, the hydrolysis result in data set [1] is on record as “observed”.
